In patent US20240415918A1, “Polypeptide and its use as a CCK receptor agonist/antagonist” (Centre for Regenerative Medicine & Health, Hong Kong …, priority 2021, published 2024):
Where a SMILES comes first, the peptide text is derived from it. [ ]: non-standard residue; d: D form. The star is where a group is joined. Phe(3-Br) = N[C@@H](Cc1cccc(Br)c1)C(=O)O; Fmoc = O=C(OCC1c2ccccc2-c2ccccc21)*; NMeNle = CCCC[C@H](NC)C(=O)O; Nle = CCCC[C@H](N)C(=O)O

Key:
[1] = target: T1, CCK-B receptors (CHO-CCK) (Homo sapiens, UniProt P32239); experiment: Calcium flux (Fluo-8) agonist test on CHO-CCK model cells; format: cell-based; conditions: for EC50: CHO-CCK cells; for Agonistic Activity (%) at 10 μM: compound at 10 μM, percentage of signal of 20 nM CCK8 alone
T1 construct: expressed in transfected cells; host or cells: CHO (CHO-CCK model cells)
T1 sequence (P32239 1-447): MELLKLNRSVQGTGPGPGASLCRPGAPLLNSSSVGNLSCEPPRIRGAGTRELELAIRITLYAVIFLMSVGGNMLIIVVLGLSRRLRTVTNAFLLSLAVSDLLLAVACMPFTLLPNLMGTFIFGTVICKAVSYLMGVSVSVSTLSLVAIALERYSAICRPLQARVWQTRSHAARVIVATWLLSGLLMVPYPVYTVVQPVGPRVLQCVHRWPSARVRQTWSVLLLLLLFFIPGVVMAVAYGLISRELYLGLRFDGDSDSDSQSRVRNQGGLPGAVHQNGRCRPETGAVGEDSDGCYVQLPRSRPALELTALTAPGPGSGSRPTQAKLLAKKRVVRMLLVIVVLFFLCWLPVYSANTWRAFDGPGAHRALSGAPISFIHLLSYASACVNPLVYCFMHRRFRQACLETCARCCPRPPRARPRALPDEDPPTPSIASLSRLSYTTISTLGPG
In short: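 Agonist-mode Fluo-8 calcium flux read on CHO-CCK cells after dye loading 30 min at 37 °C plus 30 min at room temperature.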

[2] = target: T1, CCK-B receptors (CHO-CCK); experiment: Calcium flux (Fluo-8) antagonist test on CHO-CCK model cells in presence of CCK8; format: cell-based
[3] = Fluo-8 calcium flux, 100% control = 20 nM CCK8
[4] = compound alone, 100% = 20 nM CCK8
[5] = compound together with 10 nM CCK8
[6] = Fluo-8 calcium flux, bound in μM
[7] = in presence of 10 nM CCK8, bound in μM

| Compound | EC50 [1, 3] [µM] | EC50 ([2]; in presence of 10 nM CCK8) [µM] | EC50 [2, 5] [µM] | further results |
| --- | --- | --- | --- | --- |
| CCCC[C@H](NC(=O)[C@@H](Cc1cccc(Br)c1)NC(C)=O)C(=O)N[C@@H](CC(=O)O)C(=O)N[C@@H](Cc1cccc(Br)c1)C(N)=O [HT-236, Ac-Phe(3-Br)-Nle-Asp-Phe(3-Br)-NH2] | 0.0977 | 0.357 |  |  |
| C[S+]([O-])CC[C@H](NC(=O)[C@H](N)Cc1c[nH]c2ccccc12)C(=O)N[C@@H](CC(=O)O)C(=O)N[C@@H](Cc1cccc(Br)c1)C(N)=O (stereo partly drawn) [HT-46, D-Trp-Met(O)-Asp-Phe(3-Br)-NH2] |  |  | 6.24 | EC50 [1, 4]: 3.8 µM; Agonistic Activity (%) at 10 μM [1]: 53.69% |
| CS(=O)(=O)CC[C@H](NC(=O)[C@H](N)Cc1c[nH]c2ccccc12)C(=O)N[C@@H](CC(=O)O)C(=O)N[C@@H](Cc1cc(F)cc(F)c1)C(N)=O [HT-73, D-Trp-Met(O2)-Asp-Phe(3,5-DIF)-NH2] |  |  | 8.82 | EC50 [1, 4]: 12.6 µM; Agonistic Activity (%) at 10 μM [1]: 55.41% |
| CCCCCCC[C@H](NC(=O)[C@H](Cc1c[nH]c2ccccc12)NC(C)=O)C(=O)N[C@@H](CC(=O)O)C(=O)N[C@@H](Cc1cccc(Br)c1)C(N)=O [HT-260, Ac-D-Trp-Na-Asp-Phe(3-Br)-NH2] | 0.16 | 2.74 |  |  |
| CCCC[C@H](NC(=O)[C@@H](Cc1c(C)[nH]c2ccccc12)NC(C)=O)C(=O)N[C@@H](CC(=O)O)C(=O)N[C@@H](Cc1cn(C)c2ccccc12)C(N)=O [HT-234, Ac-(2-Me-Trp)-Nle-Asp-(1-Me-Trp)-NH2] | 5.46 | 4 |  |  |
| CCCC[C@H](NC(=O)[C@@H](Cc1cn(C)c2ccccc12)NC(C)=O)C(=O)N[C@@H](CCC(=O)O)C(=O)N[C@@H](Cc1c(C)[nH]c2ccccc12)C(N)=O [HT-246, Ac-(1-Me-Trp)-Nle-Glu-(2-Me-Trp)-NH2] |  | 2.13 |  | EC50 [1, 6]: > 10 µM |
| CSCC[C@H](NC(=O)[C@H](Cc1c[nH]c2ccccc12)NC(C)=O)C(=O)N[C@@H](CC(=O)O)C(=O)N[C@@H](CCC(=O)O)C(N)=O [HT-196, Ac-Trp-Met-Asp-Glu-NH2] |  |  |  | EC50 [1, 6]: > 10 µM; EC50 [2, 7]: > 10 µM |
| COC(=O)C[C@H](NC(=O)[C@H](CCSC)NC(=O)[C@H](N)Cc1c[nH]c2ccccc12)C(=O)N[C@@H](Cc1cc(F)cc(F)c1)C(N)=O [HT-90, D-Trp-Met-Asp(Ome)-Phe(3,5-DiF)-NH2] |  |  | 5.91 | EC50 [1, 4]: 9.3 µM; Agonistic Activity (%) at 10 μM [1]: 59.76% |
| CCCC[C@H](NC(=O)[C@@H](Cc1c(C)[nH]c2ccccc12)NC(C)=O)C(=O)N[C@@H](CC(=O)O)C(=O)N[C@@H](Cc1c(C)[nH]c2ccccc12)C(N)=O [HT-235, Ac-(2-Me-Trp)-Nle-Asp-(2-Me-Trp)-NH2] |  |  |  | EC50 [1, 6]: > 10 µM; EC50 [2, 7]: > 10 µM |
| CCCC[C@@H](C(=O)N[C@@H](CC(=O)O)C(=O)N[C@@H](Cc1cccc(Br)c1)C(N)=O)N(C)C(=O)[C@@H](Cc1c[nH]c2ccccc12)NC(C)=O [HT-179, Ac-D-Trp-(N-Me-Nle)-Asp-Phe(3-Br)-NH2] (Ac-[dW][NMeNle]D[Phe(3-Br)]-NH2) |  |  |  | EC50 [1, 4]: 1.63 µM; EC50 ([2]; compound together with 10 nM CCK8, bound in μM): > 10 µM |
| CSCC[C@H](NC(=O)[C@H](Cc1c[nH]c2ccccc12)NC(C)=O)C(=O)N[C@@H](CC(=O)O)C(=O)N[C@@H](CCCCN)C(N)=O [HT-194, Ac-Trp-Met-Asp-Lys-NH2] (Ac-WMDK-NH2) |  |  | 2.22 | EC50 ([1]; compound alone, bound in μM): > 10 µM |
| CSCC[C@H](NC(=O)[C@H](Cc1cccc(Br)c1)NC(C)=O)C(=O)N[C@@H](CC(=O)O)C(=O)N[C@@H](Cc1cccc(Br)c1)C(N)=O [HT-224, Ac-Phe(3-Br)-Met-Asp-Phe(3-Br)-NH2] (Ac-[Phe(3-Br)]MD[Phe(3-Br)]-NH2) | 0.0254 | 0.0803 |  |  |
| CSCC[C@H](NC(=O)[C@H](Cc1c[nH]c2ccccc12)NC(C)=O)C(=O)N[C@@H](CC(=O)O)C(=O)N[C@@H](CCCNC(=N)N)C(N)=O [HT-195, Ac-Trp-Met-Asp-Arg-NH2] (Ac-WMDR-NH2) |  |  | 2.2 | EC50 ([1]; compound alone, bound in μM): > 10 µM |
| CSCC[C@H](NC(=O)[C@@H](Cc1c[nH]c2ccccc12)NC(=O)[C@H](CCC(=O)O)NC(=O)[C@H](CC(C)C)NC(=O)CNC(=O)[C@H](Cc1c[nH]cn1)NC(=O)[C@H](CO)NC(=O)CNC(=O)[C@H](CCCCN)NC(=O)[C@H](CCCNC(=N)N)NC(=O)[C@H](CCCNC(=N)N)NC(=O)[C@H](Cc1c[nH]cn1)NC(=O)[C@H](CCCCN)NC(=O)[C@@H](NC(C)=O)[C@@H](C)O)C(=O)N[C@@H](CC(=O)O)C(=O)N[C@@H](Cc1cccc(Br)c1)C(N)=O [HT-220] (Ac-TKHRRKGSHGLE[dW]MD[Phe(3-Br)]-NH2) | 8.39 | 2.88 |  |  |
| CCCC[C@H](NC(=O)[C@H](Cc1c[nH]c2ccccc12)NC(=O)OCC1c2ccccc2-c2ccccc21)C(=O)N[C@@H](CC(=O)O)C(=O)N[C@@H](Cc1cccc(Br)c1)C(N)=O [HT-198, Fmoc-Trp-Nle-Asp-Phe(3-Br)-NH2] (Fmoc-W[Nle]D[Phe(3-Br)]-NH2) | 0.205 | 0.908 |  |  |
